Experiment: in vitro
Conditions: human, hela cells, % viability

SMILES	viability at 28.5 h, 10 µM	viability at 28.5 h, 10 µM (bulk resorufin, single well)
CN(C)C(=O)CN1CC[C@@H](c2ccccc2)[C@H](O)C1 [CBK283979]	83%	–
Cn1c(CO)nnc1[C@H]1C[C@@H](NC(=O)COc2ccc(Cl)c(Cl)c2)C1 [CBK306667]	101%	–
COc1ccc(-c2nc(NC(=O)CSc3n[nH]c(N)n3)ns2)cc1 [CBK267236]	81.8%	–
Cc1ccc(C)c(-n2nnnc2SCC(=O)c2ccc(Cl)cc2Cl)c1 [CBK141941]	98.1%	–
COc1cc(CN2CCN(Cc3ccccc3)CC2)cc([N+](=O)[O-])c1O [CBK261574]	99%	–
c1ccc(CN2CC[C@H](c3nnc(-c4cccnc4)o3)C2)cc1 [CBK289397]	85.6%	–
CCOC(=O)C1CCN(c2cccc(F)c2C#N)CC1 [CBK304558]	101%	–
O=C1CN(Cc2ccc3ccccc3n2)CCN1C1CCCC1 [CBK281961]	88.6%	–
Cc1ccc(-c2ncc(OCC3CCCN3C)nc2N)c(C)c1 (stereo not drawn) [CBK145137]	99.2%	–
Cc1ccc(-c2nccnc2OCCC(C)C)c(C)c1 [CBK106988]	102%	–
CCCOC1CCCN(Cc2cn(CC(N)=O)c3ccccc23)C1 (stereo not drawn) [CBK282796]	105%	–
CN1CCCC(C(=O)Nc2cnc(-c3cccc(C(F)(F)F)c3)c(-c3cccnc3)n2)C1 (stereo not drawn) [CBK036787]	87.2%	–
COc1ccc(CCNC(=O)c2ccccc2NS(=O)(=O)c2cc(C(=O)O)ccc2OC)cc1 [CBK297506]	90.8%	–
O=C(Cc1c[nH]cn1)N1CCN(C(=O)c2ccco2)CC1 [CBK144448]	91.9%	–
Cn1cc(-c2nc(C(=O)N3CCN(c4ncccn4)CC3)cs2)cn1 [CBK305626]	91%	–
NS(=O)(=O)c1ccc(CNC(=O)c2cncc(-c3ccc(C(=O)N4CCOCC4)cc3)c2)cc1 [CBK158641]	100%	–
O=C(CNC(=O)c1ccccc1)OCC(=O)c1ccc(Cl)c(Cl)c1 [CBK261611]	93.9%	–
Cn1c(C(N)=O)cc(=O)n1-c1ccc([N+](=O)[O-])cc1 [CBK015873]	101%	–
Cn1c(C(=O)N2CCc3ccccc32)cc2ccccc21 [CBK200406]	110%	–
Sc1nnnn1-c1ccccc1 [CBK022881G]	99.9%	–
Cc1nc2ncnn2c(C)c1CCC(=O)Nc1cccc(CCc2ccncc2)c1 [CBK285557]	99.8%	–
Cc1ccc(S(N)(=O)=O)cc1NC(=O)c1ccc(Br)o1 [CBK003693]	91.6%	–
CCn1c(C)nc2cc(NC(=O)Cn3cnc4ccccc43)ccc21 [CBK281832]	94.1%	–

SMILES	viability at 28.5 h, 10 µM	viability at 28.5 h, 10 µM (bulk resorufin, single well)
COc1ccc(C(=O)Nc2nnc[nH]2)cc1 [CBK025569]	90.8%	–
COc1ccc(CNC(=O)C2CC=CCC2C(=O)O)cc1OC (stereo not drawn) [CBK267695]	86.6%	–
NCc1ccc(CN(Cc2ccc(-c3ccccc3)cc2)C(=O)Nc2c(F)cccc2F)cc1 [CBK046115C]	104%	–
CCc1noc(C)c1C(=O)NCCN(C)C [CBK268118]	97.5%	–
COCCN(CCOC)C(=O)Nc1ccc(F)c(NC(C)=O)c1 [CBK307705]	98.2%	–
Cn1c(=O)n(CC(=O)NCc2cccs2)c2cccnc21 [CBK283907]	90.3%	–
Cc1nc(NS(=O)(=O)c2c(C)noc2C)sc1C(=O)O [CBK045562]	85.7%	–
CN(C)CCN(C)C(=O)c1cc(Br)cnc1N1CCN(C(=O)c2ccco2)CC1 [CBK076514]	93.8%	–
CC1=NN(c2nc(-c3cccc([N+](=O)[O-])c3)cs2)C(=O)C1/N=N/c1ccc(S(N)(=O)=O)cc1 (stereo not drawn) [CBK262434]	94%	–
COc1ccccc1-c1cnc(N)c(N[C@@H](C)c2ccccc2)n1 [CBK063721]	107%	–
CCC(CNC(=O)c1cc(-c2ccco2)nc2c(C(N)=O)ncn12)c1ccccc1 (stereo not drawn) [CBK297779]	94.2%	–
NC(=S)c1c(Cl)cc(C(F)(F)F)cc1Cl [CBK011349]	105%	–
CC(=O)OC(COc1cccc(Cl)c1)Cn1cnc2cc(C)c(C)cc21 (stereo not drawn) [CBK266152]	86.6%	–
COc1ccc(-c2cc(C(=O)OCC(=O)c3cccc4ccccc34)c3ccccc3n2)cc1 [CBK265513]	96.7%	–
O=C(NCCOc1ccccc1Cc1ccccc1)c1cncc(Br)c1 [CBK266581]	103%	–
Cc1ccccc1C(=O)Nc1cc(NC(=O)c2ccccc2C)cc(C(=O)O)c1 [CBK262007]	109%	–
O=C(NCc1cccnc1)N1CCCCC1CO (stereo not drawn) [CBK156169]	105%	–
NCCn1cc(-c2cccc(F)c2)c(C2CCOCC2)n1 [CBK281696]	91.1%	–
Cc1cccc(OCCOc2ccc(Br)cc2/C=C2\SC(=N)NC2=O)c1 [CBK263958]	102%	–
COc1ccc(C(=O)N2Cc3nc[nH]c3C[C@H]2c2nc(-c3ccc(OC)cc3)no2)cc1 [CBK288966]	107%	–
O=C(Cn1cc(C(=O)NCc2ccccc2)ccc1=O)Nc1cc(F)ccc1N1CCCC1 [CBK285998]	97.8%	–
NCCCNCCOc1ccc(Cl)c(Cl)c1 [CBK268631C]	111%	–
O=C(N1CCC=C(F)C1)C12CCOCC1CN(c1ncccn1)C2 (stereo not drawn) [CBK304264]	91.3%	–

SMILES	viability at 28.5 h, 10 µM	viability at 28.5 h, 10 µM (bulk resorufin, single well)
CCOC(=O)C1(Cc2ccc(F)cc2F)CCCN(C(=O)CC)C1 (stereo not drawn) [CBK307012]	92.7%	–
O=C(Nc1nc(-c2ccccc2)cs1)c1ccc(N2C(=O)CCC2=O)cc1 [CBK287333]	97.7%	–
COc1cccc2ncn(Cc3n[nH]c(C)n3)c(=O)c12 [CBK306938]	89.7%	–
COC(=O)c1cc(C)sc1NC(=S)Nc1ccccc1[N+](=O)[O-] [CBK267047]	99.9%	–
O=C(O)c1[nH]nc2c1COc1ccccc1-2 [CBK266356]	97.5%	–
O=S(=O)(Nc1cc(NCCCN2CCOCC2)c2occc2c1)c1ccccc1C(F)(F)F [CBK067838C]	94.9%	–
COCCNC(=O)c1nn2c(c1Br)NC(c1cccs1)CC2C(F)(F)F (stereo not drawn) [CBK307178]	84.5%	–
CCN(CC)C1CCN(C(=O)Nc2cc(NC(C)=O)ccc2F)C1 (stereo not drawn) [CBK305207]	88.7%	–
CC(NC(=O)C1CCN(Cc2nccs2)CC1)c1ccc(F)cc1 (stereo not drawn) [CBK148056]	102%	–
CCN(CC)CCn1c(=N)n(Cc2ccc(C(C)(C)C)cc2)c2ccccc21 [CBK268803B]	82.9%	–
Cc1ccc(CN2C[C@@H]3CC[C@@](O)(c4ncccc4C)[C@@H]3C2)o1 [CBK285361]	82.6%	–
O=c1c2c3c(sc2ncn1Cc1nn[nH]n1)CCCC3 [CBK269808]	83.9%	–
CCOC(=O)c1c(NC(=O)CSc2n[nH]c(N)n2)sc2c1CCCCC2 [CBK266569]	101%	–
Cc1c(-c2cc(C(=O)NC(C)C3CC4CCC3C4)no2)cnn1C (stereo not drawn) [CBK281653]	91.3%	–
COc1ccc(C2NC(C(=O)O)CS2)c(OC)c1 (stereo not drawn) [CBK260908]	99.2%	–
Cc1ccc(O)c(NC(=O)c2cccc(S(=O)(=O)N3CCCCC3)c2)c1 [CBK267790]	83.3%	–
CC(=O)N1CC(C(=O)Nc2ncc(-c3ccccc3)n2C)C1 [CBK281373]	96.1%	–
CCC(C(=O)O)N1C(=O)NC2C1N(C)C(=O)N2C (stereo not drawn) [CBK287039]	79.9%	–
O=C(CCC1C(=O)NC(=O)NC1=O)Nc1cccc(-c2nc3ccccc3s2)c1 [CBK285844]	–	105%
Cc1csc(C(Cc2ccsc2)NC(=O)c2scnc2C)n1 (stereo not drawn) [CBK285098]	106%	–
Cc1cccc(C)c1NC(=O)c1nccnc1C(=O)O [CBK260915]	97%	–
COC(=O)Nc1ncc(CN2CCCCC2)s1 [CBK268208]	111%	–
CN1CCN(CC(=O)N2c3ccccc3C(C)(c3ccc(Cl)cc3)CC2(C)C)CC1 (stereo not drawn) [CBK059202]	88.1%	–

SMILES	viability at 28.5 h, 10 µM	viability at 28.5 h, 10 µM (bulk resorufin, single well)
O=C/C(=C\Nc1ccc(S(=O)(=O)N2CCCCC2)cc1)c1nc2ccccc2o1 [CBK262281]	99.2%	–
Oc1cc2nnnn2nc1-c1ccccc1 [CBK019550]	101%	–
COc1ccc(NC(=O)NC(=O)c2ccc(Cl)cc2)c(OC)c1 [CBK269462]	93.1%	–
O=C(CCC(=O)N1CCC2(CC1)CC(=O)c1ccccc1O2)NCC1CCCO1 (stereo not drawn) [CBK156525]	86.2%	–
Cc1ccc(C#N)c(NS(=O)(=O)c2cc(C)c(Cl)cc2C)c1 [CBK045250]	96.6%	–
CN1CCC(NC(=O)c2cc3ccccc3[nH]2)CC1 [CBK168633]	88.3%	–
CCNC(=O)N1CC2(CCN(CCOc3ccccc3)CC2)c2ccccc21 [CBK122701]	93.9%	–
FC(F)(F)c1cc(-c2cc(N3CCN(c4ccccn4)CC3)ncn2)cc(C(F)(F)F)c1 [CBK091082]	94.5%	–
Nc1ccc(-c2cn3ccnc3c(NCc3cccs3)n2)cc1 [CBK066564]	95.5%	–
CC(=O)Nc1cccc(-c2ccc3c(c2)COC2(CCNCC2)O3)c1 [CBK060956]	–	94.5%
Cc1nn(CCNC(=O)C2CC(=O)N(CC(C)C)C2)c(C)c1C (stereo not drawn) [CBK281630]	88%	–
Cc1cc(CC(=O)NCCc2c[nH]c3ccc(Cl)cc23)on1 [CBK159774]	86.4%	–
CSc1nc(NC(=O)C2CCCO2)cc(N2CCNCC2)n1 (stereo not drawn) [CBK026740T]	90.5%	–
Nc1nnc(SCc2nc3ccccc3n2Cc2ccccc2)s1 [CBK264649]	92.1%	–
C[C@H](Nc1nc(-c2cccc3ncccc23)cnc1N)c1ccccc1 [CBK063771]	97.6%	–
CCn1c(=O)n(CC(=O)N2CCc3ccccc32)c2cccnc21 [CBK283826]	89.4%	–
CC(C(=O)Nc1sc2c(c1C(=O)NCc1ccco1)CCCC2)N1C(=O)c2ccccc2C1=O (stereo not drawn) [CBK265603]	86.6%	–
CCCNC(=O)c1ccc(C)c(NC(=O)N[C@@H](CO)c2ccccc2)c1 [CBK306609]	96.2%	–
Fc1ccc([C@@H]2CN(Cc3cccnc3)C[C@H]2c2cc[nH]n2)cc1 [CBK283054]	100%	–
O=S(=O)(Nc1cccc(Br)c1)c1ccc(OC(F)(F)F)cc1 [CBK044369]	114%	–
O=C(NCCn1nc(-c2ccco2)ccc1=O)c1cccs1 [CBK283704]	92.5%	–
